{"source": "paper PMC4823711", "about": "“Allosteric Partial Inhibition of Monomeric Proteases. Sulfated Coumarins Induce Regulation, not just Inhibition, of Thrombin” (Scientific Reports, 2016)", "key": {"[1]": {"molecular_target": "thrombin (Homo sapiens, UniProt P00734)", "test": "Chromogenic substrate hydrolysis assay, thrombin inhibition (Spectrozyme TH)", "assay_type": "biochemical", "set-up": "6 nM plasma α-thrombin; purchased Haematologic Technologies (Essex Junction, VT)", "details": "for thrombin inhibition (in words): up to 250 μM; for efficacy of thrombin inhibition (ΔY) / IC50: pH 7.4, 25 °C; for efficacy of thrombin inhibition (ΔY): at saturation; for IC50: read-out: IC50 against thrombin", "protocol": "Chromogenic substrate hydrolysis assay was used to measure potency of inhibition, as previously reported. The assay was performed using Flexstation III (Molecular Devices, Sunnyvale, CA) by monitoring substrate hydrolysis at 405 nm. For thrombin and its mutants, 180 μL of buffer (20 mM Tris-HCl, 100 mM NaCl, 2.5 mM CaCl2, 0.1% (polyethylene glycol) PEG 8000, pH 7.4) was added to each well followed by 5 μL of 240 nM thrombin and 10 μL of sulfated coumarin in DMSO to give 0.002 to 250 μM final concentration (or 10 μL of DMSO alone). After incubation for 10 min at 25 °C, 5 μL of 2 mM Spectrozyme TH was added to each well simultaneously and allowed to react for 60 seconds at 25 °C while simultaneously monitoring the reaction to obtain the rate of increase in A405. Identical experimental conditions were used for reactions in the presence of antithrombin, except for 100 nM of antithrombin added prior to the addition of the substrate.\nFor factor XIa inhibition studies, 85 μL of buffer (50 mM Tris-HCl, 150 mM NaCl, 0.1% PEG 8000, 0.02% Tween 80, pH 7.4) was added to each well, followed by 7 μL of 15.3 nM enzyme and 3 μL of sulfated coumarin (3.75–500 μM final concentration) and incubated for 10 min at 37 °C. After the incubation period, 5 μL of 6.9 mM S-2366 was added to each well simultaneously and allowed to react for 300 sec at 37 °C. For factor Xa assay, 180 μL of buffer (20 mM Tris-HCl, 100 mM NaCl, 2.5 mM CaCl2, 0.1% PEG 8000, 0.02% Tween 80, pH 7.4) was added to each well followed by 5 μL of 43.5 nM enzyme, 10 μL of sulfated coumarin (0.002–250 μM final concentration). After a 10 min incubation, 5 μL of 5 mM Spectrozyme FXa was added to each well simultaneously and allowed to react for 300 seconds at 37 °C. The slopes generated from each experiment were used to calculate the fractional residual activity (Y) at each concentration of the inhibitor, and analyzed using logistic equation 1, in which YM is the maximum efficacy, Y0 is minimum efficacy and HS is the Hill slope."}, "[2]": {"tested_on": "thrombin", "details": "cited from earlier work; for efficacy of thrombin inhibition (ΔY): orthosteric inhibitors"}, "[3]": {"molecular_target": "thrombin", "set-up": "method as in PMID 2007587", "details": "read-out: affinity for thrombin; cited from earlier work"}}, "note": "Entries after “also recorded” stand apart in the source; their conditions may differ.", "data": [{"compound": "O=c1oc2cc(OS(=O)(=O)O)ccc2c(-c2ccccc2)c1-c1cccc(Cl)c1", "note": "[2e]", "values": [{"measurement": "thrombin inhibition (in words)", "setting": "[1]", "value": "active"}]}, {"compound": "O=c1oc2cc(OS(=O)(=O)O)ccc2c(-c2ccccc2)c1-c1ccc(OS(=O)(=O)O)cc1", "note": "[2y]", "values": [{"measurement": "thrombin inhibition (in words)", "setting": "[1]", "value": "not all 4-aryl derivatives were active; also recorded: complete absence of inhibition potential"}]}, {"compound": "Cc1ccc(C(=O)Nc2ccc(S(=O)(=O)O)c3cc(S(=O)(=O)O)cc(S(=O)(=O)O)c23)cc1NC(=O)c1cccc(NC(=O)Nc2cccc(C(=O)Nc3cc(C(=O)Nc4ccc(S(=O)(=O)O)c5cc(S(=O)(=O)O)cc(S(=O)(=O)O)c45)ccc3C)c2)c1", "note": "[suramin]", "values": [{"measurement": "IC50", "setting": "[2]; read-out: IC50 of thrombin inhibition", "value": "20 to 40", "unit": "µM"}]}, {"compound": "O=c1oc2c(Cl)cc(Cl)cc2c(-c2ccccc2)c1-c1ccc(OS(=O)(=O)O)cc1", "note": "[2x]", "values": [{"measurement": "thrombin inhibition (in words)", "setting": "[1]", "value": "not all 4-aryl derivatives were active"}]}, {"compound": "O=c1oc2cc(OCCCCn3cc(COc4ccc5c(-c6ccccc6)c(-c6ccc(OS(=O)(=O)O)cc6)c(=O)oc5c4)nn3)ccc2c(-c2ccccc2)c1-c1ccc(OS(=O)(=O)O)cc1", "note": "[3b]", "values": [{"measurement": "efficacy of thrombin inhibition (ΔY)", "setting": "[1]", "value": 58, "unit": "%"}, {"measurement": "IC50", "setting": "[1]", "value": "≤ 1", "unit": "µM"}]}, {"compound": "CC1CNc2c(cccc2S(=O)(=O)N[C@@H](CCCNC(=N)N)C(=O)N2CC[C@@H](C)C[C@@H]2C(=O)O)C1", "note": "(stereo partly shown) [argatroban]", "values": [{"measurement": "efficacy of thrombin inhibition (ΔY)", "setting": "[2]", "value": 100, "unit": "%"}]}, {"compound": "[H]/N=C(/N)c1ccc(NCc2nc3cc(C(=O)N(CCC(=O)O)c4ccccn4)ccc3n2C)cc1", "note": "[dabigatran]", "values": [{"measurement": "efficacy of thrombin inhibition (ΔY)", "setting": "[2]", "value": 100, "unit": "%"}]}, {"compound": "O=c1oc2cc(OS(=O)(=O)O)ccc2c(-c2ccccc2)c1-c1ccc(Cl)cc1Cl", "note": "[2k]", "values": [{"measurement": "thrombin inhibition (in words)", "setting": "[1]", "value": "active"}]}, {"compound": "O=c1oc2cc(OS(=O)(=O)O)ccc2c(-c2ccccc2)c1-c1ccccc1Cl", "note": "[2d]", "values": [{"measurement": "thrombin inhibition (in words)", "setting": "[1]", "value": "not all 4-aryl derivatives were active"}]}, {"compound": "O=c1oc2cc(OS(=O)(=O)O)ccc2c(-c2ccccc2)c1-c1ccc(Br)cc1", "note": "[2o]", "values": [{"measurement": "thrombin inhibition (in words)", "setting": "[1]", "value": "not all 4-aryl derivatives were active"}]}, {"compound": "O=c1oc2cc(OCCCn3cc(COc4ccc5cc(-c6ccc(OS(=O)(=O)O)cc6)c(=O)oc5c4)nn3)ccc2cc1-c1ccc(OS(=O)(=O)O)cc1", "note": "[3c]", "values": [{"measurement": "efficacy of thrombin inhibition (ΔY)", "setting": "[1]", "value": 60, "unit": "%"}]}, {"compound": "O=c1oc2cc(OS(=O)(=O)O)ccc2c(Cc2ccc(Cl)cc2)c1-c1ccccc1", "note": "[2p]", "values": [{"measurement": "thrombin inhibition (in words)", "setting": "[1]", "value": "active"}]}, {"compound": "O=c1oc2cc(OS(=O)(=O)O)ccc2c(-c2ccccc2)c1-c1ccc(O)c(OS(=O)(=O)O)c1", "note": "[2w]", "values": [{"measurement": "thrombin inhibition (in words)", "setting": "[1]", "value": "not all 4-aryl derivatives were active"}]}, {"compound": "O=c1oc2ccc(OS(=O)(=O)O)cc2c(-c2ccccc2)c1-c1ccc(Cl)cc1", "note": "[2l]", "values": [{"measurement": "thrombin inhibition (in words)", "setting": "[1]", "value": "not all 4-aryl derivatives were active"}]}, {"compound": "Heparin hexasaccharide", "values": [{"measurement": "thrombin inhibition (in words)", "setting": "[2]", "value": "not an inhibitor"}, {"measurement": "Kd", "setting": "[3]", "value": "~8", "unit": "µM"}]}, {"compound": "O=c1oc2cc(OCCCn3cc(COc4ccc5c(-c6ccccc6)c(-c6ccc(OS(=O)(=O)O)cc6)c(=O)oc5c4)nn3)ccc2c(-c2ccccc2)c1-c1ccc(OS(=O)(=O)O)cc1", "note": "[3a]", "values": [{"measurement": "efficacy of thrombin inhibition (ΔY)", "setting": "[1]", "value": 73, "unit": "%"}, {"measurement": "IC50", "setting": "[1]", "value": "≤ 1", "unit": "µM"}]}]}
